Data published in patent US20260207572A1, “METHODS AND COMPOSITIONS FOR TREATMENT OF SUBJECTS WITH HEPATIC IMPAIRMENTS” (ELEVAR THERAPEUTICS, INC., priority 2022, published 2026).
Read-outs that look alike come from different tables or passages of the source.

Experiment: Phase 1 single-dose plasma pharmacokinetics in subjects with normal hepatic function, mild or moderate hepatic impairment
Assay type: in vivo, human
Conditions: for half-life / Tmax / concentration at 0.5 h / concentration at 1 h / concentration at 2 h / concentration at 3 h / concentration at 4 h / concentration at 6 h / concentration at 8 h / concentration at 12 h / concentration at 16 h / concentration at 24 h / concentration at 36 h / concentration at 48 h / AUC(0-t) / AUC(0-inf) / Cmax / Vd/F: human, plasma, po, 200 mg, 200 mg single oral dose
Excerpt: Patients: 27 subjects were enrolled within the following groups based on their Child-Pugh (CP) classification score: • Group 1: Matched-control healthy subjects with normal hepatic function; • Group 2: Subjects with mild hepatic impairment (CP Class A, score of 5 or 6); • Group 3: Subjects with moderate hepatic impairment (CP Class B, score of 7 to 9).
A parallel design strategy was adopted for the hepatic impairment groups. Each matched-control healthy subject (Group 1) was enrolled following the enrollment of a mild and/or moderate hepatic impairment subject and was demographically matched by age (±10 years), BMI (±20%), and sex to the enrolled hepatic impairment subject(s). Subjects with normal hepatic function were not matched to more than 1 hepatically-impaired subject within an impairment group; however, subjects with normal hepatic function could be matched to 1 subject from more than 1 hepatic impairment group.
Other noncompartmental parameters could be reported.
The paired t-test was performed separately for each hepatic impairment group and the corresponding matched healthy controls. Estimates of geometric mean ratios in primary PK parameters between each level of impaired hepatic function versus the matched healthy controls were presented along with the corresponding 90% confidence intervals (CIs) for the geometric mean ratios. The p-value assessing the difference between each impairment group and the healthy control group was presented.
The PK analysis was conducted by Covance Early Clinical Biometrics using WinNonlin Version 8.1.

[1] = Moderate Hepatic Impairment, read-out: Plasma concentration, Arithmetic Mean
[2] = Moderate Hepatic Impairment, read-out: Plasma concentration, Geometric Mean
[3] = Moderate Hepatic Impairment, read-out: Plasma concentration, Median
[4] = Normal Hepatic Function, read-out: Plasma concentration, Arithmetic Mean
[5] = Normal Hepatic Function, read-out: Plasma concentration, Geometric Mean
[6] = Normal Hepatic Function, read-out: Plasma concentration, Median

N#CC1(c2ccc(NC(=O)c3cccnc3NCc3ccncc3)cc2)CCCC1 [Rivoceranib, N-[4-(1-cyanocyclopentyl)phenyl]-2-{[(pyridin-4-yl)methyl]amino} pyridine-3-carboxamide]
half-life (Moderate Hepatic Impairment, read-out: t1/2, Geometric Mean (converted)): 18.4 h
half-life (Moderate Hepatic Impairment, read-out: t1/2, Median (converted)): 18.2 h
Tmax (Moderate Hepatic Impairment, read-out: tmax, Arithmetic Mean): 2 h
Tmax (Moderate Hepatic Impairment, read-out: tmax, Geometric Mean): 1.8 h
Tmax (Moderate Hepatic Impairment, read-out: tmax, Median): 2 h
concentration at 0.5 h [1]: 115 ng/mL
concentration at 0.5 h [2]: 57.1 ng/mL
concentration at 0.5 h [3]: 92.2 ng/mL
concentration at 1 h [1]: 195 ng/mL
concentration at 1 h [2]: 140 ng/mL
concentration at 1 h [3]: 154 ng/mL
concentration at 2 h [1]: 190 ng/mL
concentration at 2 h [2]: 178 ng/mL
concentration at 2 h [3]: 170 ng/mL
concentration at 3 h [1]: 166 ng/mL
concentration at 3 h [2]: 154 ng/mL
concentration at 3 h [3]: 162 ng/mL
concentration at 4 h [1]: 134 ng/mL
concentration at 4 h [2]: 121 ng/mL
concentration at 4 h [3]: 132 ng/mL
concentration at 6 h [1]: 106 ng/mL
concentration at 6 h [2]: 96.8 ng/mL
concentration at 6 h [3]: 93.8 ng/mL
concentration at 8 h [1]: 85.5 ng/mL
concentration at 8 h [2]: 80.3 ng/mL
concentration at 8 h [3]: 85 ng/mL
concentration at 12 h [1]: 62.3 ng/mL
concentration at 12 h [2]: 58.2 ng/mL
concentration at 12 h [3]: 54.2 ng/mL
concentration at 16 h [1]: 52.6 ng/mL
concentration at 16 h [2]: 45.3 ng/mL
concentration at 16 h [3]: 43.4 ng/mL
concentration at 24 h [1]: 44.3 ng/mL
concentration at 24 h [2]: 38.7 ng/mL
concentration at 24 h [3]: 36.5 ng/mL
concentration at 36 h [1]: 24 ng/mL
concentration at 36 h [2]: 20.9 ng/mL
concentration at 36 h [3]: 24.9 ng/mL
concentration at 48 h [1]: 17.4 ng/mL
concentration at 48 h [2]: 18.1 ng/mL
concentration at 48 h [3]: 15.5 ng/mL
AUC(0-t) (Normal Hepatic Function, read-out: AUC0-t, Arithmetic Mean): 2690 ng·h/mL
AUC(0-t) (Normal Hepatic Function, read-out: AUC0-t, Geometric Mean): 2560 ng·h/mL
AUC(0-t) (Normal Hepatic Function, read-out: AUC0-t, Median): 2780 ng·h/mL
AUC(0-inf) (Normal Hepatic Function, read-out: AUC0-∞, Arithmetic Mean): 3180 ng·h/mL
AUC(0-inf) (Normal Hepatic Function, read-out: AUC0-∞, Geometric Mean): 3050 ng·h/mL
AUC(0-inf) (Normal Hepatic Function, read-out: AUC0-∞, Median): 2880 ng·h/mL
Cmax (Normal Hepatic Function, read-out: Cmax, Arithmetic Mean): 271 ng/mL
Cmax (Normal Hepatic Function, read-out: Cmax, Geometric Mean): 250 ng/mL
Cmax (Normal Hepatic Function, read-out: Cmax, Median): 270 ng/mL
Vd/F (Normal Hepatic Function, read-out: VZ/F, Arithmetic Mean): 1340 L
Vd/F (Normal Hepatic Function, read-out: VZ/F, Geometric Mean): 1310 L
Vd/F (Normal Hepatic Function, read-out: VZ/F, Median): 1190 L
half-life (Normal Hepatic Function, read-out: t1/2, Arithmetic Mean (converted)): 17.9 ± 8.6 h
half-life (Normal Hepatic Function, read-out: t1/2, Geometric Mean (converted)): 16.3 h
half-life (Normal Hepatic Function, read-out: t1/2, Median (converted)): 16.9 h
Tmax (Normal Hepatic Function, read-out: tmax, Arithmetic Mean): 2.5 h
Tmax (Normal Hepatic Function, read-out: tmax, Geometric Mean): 2.2 h
Tmax (Normal Hepatic Function, read-out: tmax, Median): 2 h
concentration at 0.5 h [4]: 17.7 ng/mL
concentration at 0.5 h [5]: 15.2 ng/mL
concentration at 0.5 h [6]: 6.8 ng/mL
concentration at 1 h [4]: 136 ng/mL
concentration at 1 h [5]: 92.9 ng/mL
concentration at 1 h [6]: 74.4 ng/mL
concentration at 2 h [4]: 226 ng/mL
concentration at 2 h [5]: 204 ng/mL
concentration at 2 h [6]: 236 ng/mL
concentration at 3 h [4]: 216 ng/mL
concentration at 3 h [5]: 192 ng/mL
concentration at 3 h [6]: 199 ng/mL
concentration at 4 h [4]: 164 ng/mL
concentration at 4 h [5]: 149 ng/mL
concentration at 4 h [6]: 147 ng/mL
concentration at 6 h [4]: 131 ng/mL
concentration at 6 h [5]: 117 ng/mL
concentration at 6 h [6]: 106 ng/mL
concentration at 8 h [4]: 99.4 ng/mL
concentration at 8 h [5]: 89.5 ng/mL
concentration at 8 h [6]: 81 ng/mL
concentration at 12 h [4]: 67.8 ng/mL
concentration at 12 h [5]: 63.2 ng/mL
concentration at 12 h [6]: 61.9 ng/mL
concentration at 16 h [4]: 48.8 ng/mL
concentration at 16 h [5]: 45.7 ng/mL
concentration at 16 h [6]: 49.7 ng/mL
concentration at 24 h [4]: 43.2 ng/mL
concentration at 24 h [5]: 40.4 ng/mL
concentration at 24 h [6]: 43 ng/mL
concentration at 36 h [4]: 23.9 ng/mL
concentration at 36 h [5]: 21.3 ng/mL
concentration at 36 h [6]: 24.2 ng/mL
concentration at 48 h [4]: 14.9 ng/mL
concentration at 48 h [5]: 14.8 ng/mL
concentration at 48 h [6]: 15.9 ng/mL
exposure in mild or moderate hepatic impairment compared to normal hepatic function (same amount of rivoceranib): do not have a statistically significant difference in exposure
